Data on 22 molecules can be found in US9133104B2 (Chroma Therapeutics Ltd., priority 2005, dated 2015).

Structures are written as SMILES. pIC50: −log10 of the molar value.

In experiment [1] the target is T1, histone deacetylase activity (HeLa nuclear extract).
T1 construct: Histone deacetylase activity from crude nuclear extract derived from HeLa cells was used for screening
Kind of experiment: HDAC fluorescent activity assay (Biomol Fluor de Lys), HeLa nuclear extract. The experiment is classed as biochemical. As to conditions: Fluor de Lys substrate, IC50 range. As for the experimental part: The ability of compounds to inhibit histone deacetylase activities was measured using the commercially available HDAC fluorescent activity assay from Biomol. In brief, the Fluor de Lys™ substrate, a lysine with an epsilon-amino acetylation, is incubated with the source of histone deacetylase activity (HeLa nuclear extract) in the presence or absence of inhibitor. Deacetylation of the substrate sensitises the substrate to Fluor de Lys™ developer, which generates a fluorophore. Thus, incubation of the substrate with a source of HDAC activity results in an increase in signal that is diminished in the presence of an HDAC inhibitor.
Data are expressed as a percentage of the control, measured in the absence of inhibitor, with background signal being subtracted from all samples, as follows:— % activity=((S^i−B)/(S^o−B))×100 where S^i is the signal in the presence of substrate, enzyme and inhibitor, S^o is the signal in the presence of substrate, enzyme and the vehicle in which the inhibitor is dissolved, and B is the background signal measured in the absence of enzyme.
IC50 values were determined by non-linear regression analysis, after fitting the results of eight data points to the equation for sigmoidal dose response with variable slope (% activity against log concentration of compound), using Graphpad Prism software.
Histone deacetylase activity from crude nuclear extract derived from HeLa cells was used for screening. The preparation, purchased from 4C (Seneffe, Belgium), was prepared from HeLa cells harvested whilst in exponential growth phase. The nuclear extract is prepared according to Dignam JD1983 Nucl. Acid. Res. 11, 1475-1489, snap frozen in liquid nitrogen and stored at −80° C. The final buffer composition was 20 mM Hepes, 100 mM KCl, 0.2 mM EDTA, 0.5 mM DTT, 0.2 mM PMSF and 20% (v/v) glycerol.

Experiment [2] has as its system Hela cancer cell line. Kind of experiment: Cell inhibition assay (SRB cell viability), Hela. The experiment is classed as cell-based. As to conditions: 72 h, Hela cells, IC50 range. As for the experimental part:
(§1) The corresponding cancer cell lines (Hela, U937 and HUT) growing in log phase were harvested and seeded at 1000 cells/well (200 ul final volume) into 96-well tissue culture plates. Following 24 h of cell growth cells were treated with compounds (final concentration of 20 uM). Plates were then re-incubated for a further 72 h before a sulphorhodamine B (SRB) cell viability assay was conducted according to Skehan 1990 J Natl Canc Inst 82, 1107-1112.
(§2) Data were expressed as a percentage inhibition of the control, measured in the absence of inhibitor, as follows:— % inhibition=100−((S^i/S^o)×100) where S^i is the signal in the presence of inhibitor and S^o is the signal in the presence of DMSO. IC50 values were determined by non-linear regression analysis, after fitting the results of eight data points to the equation for sigmoidal dose response with variable slope (% activity against log concentration of compound), using Graphpad Prism software. […] NT=Not tested

Experiment [3] deals with HUT cancer cell line. Kind of experiment: Cell inhibition assay (SRB cell viability), HUT. Type of experiment: cell-based. Particulars: HUT cells, 72 h, IC50 range. As for the experimental part: as §1, §2
Experiment [4] deals with U937 cancer cell line. The experiment can be described thus: Cell inhibition assay (SRB cell viability), U937. Type of experiment: cell-based. Particulars: Homo sapiens, U-937, U937 cells, 72 h, IC50 range. The protocol: as §1, §2

A word on the pIC50: it is the IC50 on a negative log10 scale, so that one unit is a factor of ten. For the molecule `O=C(CCCCCCC(=O)Nc1cccc(CN[C@@H](Cc2ccccc2)C(=O)O)c1)NO` [Compound 27, (S)-2-[3-(7-Hydroxycarbamoyl-heptanoylamino)-benzylamino]-3-phenyl-propionic acid], the pIC50 in experiment [1] is 6.00 to 7.00; in experiment [2] (Homo sapiens, HeLa) it was under 5.48.
For `O=C(CCCCCCC(=O)Nc1cccc(CN[C@@H](CCc2ccccc2)C(=O)O)c1)NO` [Compound 30, (S)-2-[3-(7-Hydroxycarbamoyl-heptanoylamino)-benzylamino]-4-phenyl-butyric acid] the same measures were 6.00 to 7.00 and under 5.48.
Turning to `CCOC(=O)[C@H](COC(C)(C)C)NCc1cccc(NC(=O)CCCCCCC(=O)NO)c1` [Compound 32, (S)-3-tert-Butoxy-2-[3-(7-hydroxycarbamoyl-heptanoylamino)-benzylamino]-propionic acid ethyl ester], the pIC50 in experiment [1] was over 7.00; in experiment [2] (Homo sapiens, HeLa) it was 5.48 to 6.48; in experiment [3], 5.48 to 6.48.
Take `CC(C)(C)OC[C@H](NCc1cccc(NC(=O)CCCCCCC(=O)NO)c1)C(=O)O` [Compound 33, (S)-3-tert-Butoxy-2-[3-(7-hydroxycarbamoyl-heptanoylamino)-benzylamino]-propionic acid]: the pIC50 in experiment [1] is 6.00 to 7.00; in experiment [2] (Homo sapiens, HeLa), under 5.48.
Take `CC(C)C[C@H](NCc1cccc(NC(=O)CCCCCCC(=O)NO)c1)C(=O)OC1CCCC1` [Compound 39, (S)-2-[3-(7-Hydroxycarbamoyl-heptanoylamino)-benzylamino]-4-methyl-pentanoic acid cyclopentyl ester]: the negative-log IC50 (pIC50) was 6.00 to 7.00 in experiment [1], over 6.48 in experiment [4] and 5.48 to 6.48 in experiment [3].
Turning to `O=C(CCCCCCC(=O)N1Cc2ccccc2C[C@H]1C(=O)N[C@H](C(=O)O)c1ccccc1)NO` [Compound 45, (S)-{[(S)-2-(7-Hydroxycarbamoyl-heptanoyl)-1,2,3,4-tetrahydro-isoquinoline-3-carbonyl]-amino}-phenyl-acetic acid], the pIC50 in experiment [1] was under 6.00; in experiment [2] (Homo sapiens, HeLa) it was under 5.48.
`O=C(CCCCCCC(=O)N1Cc2ccccc2C[C@H]1C(=O)N[C@@H](Cc1ccccc1)C(=O)O)NO` [Compound 49, (S)-2-{[(S)-2-(7-Hydroxycarbamoyl-heptanoyl)-1,2,3,4-tetrahydro-isoquinoline-3-carbonyl]amino}-3-phenyl-propionic acid]: the pIC50 in experiment [1] was 6.00 to 7.00; in experiment [2], under 5.48.
Take `O=C(CCCCCCC(=O)N1CCCC1C(=O)N[C@H](C(=O)O)c1ccccc1)NO` (stereo partly drawn) [Compound 54, (S)-{[1-(7-Hydroxycarbamoyl-heptanoyl)-pyrrolidine-2-carbonyl]-amino}-phenyl-acetic acid]: the pIC50 in experiment [1] was under 6.00; in experiment [2] (Homo sapiens, HeLa), under 5.48.
For the molecule `O=C(CCCCCCC(=O)N1CCCC1C(=O)N[C@@H](Cc1ccccc1)C(=O)O)NO` (stereo partly drawn) [Compound 57, (S)-2-{[1-(7-Hydroxycarbamoyl-heptanoyl)-pyrrolidine-2-carbonyl]-amino}-3-phenyl-propionic acid], the pIC50 in experiment [1] was under 6.00; in experiment [2] (Homo sapiens, HeLa) it was under 5.48.
Taken in the same sequence, the figures for `O=C(CCCCCCC(=O)N1Cc2[nH]c3ccccc3c2C(C(=O)NC(Cc2ccccc2)C(=O)O)C1)NO` [Compound 59, (S)-2-{[(S)-2-(7-Hydroxycarbamoyl-heptanoyl)-2,3,4,9-tetrahydro-1H-bet α-carboline-4-carbonyl]-amino}-3-phenyl-propionic acid] were over 7.00 and under 5.48.
Consider `O=C(CCCCCCC(=O)Nc1cccc(C(=O)N[C@H](C(=O)O)c2ccccc2)c1)NO` [Compound 61, (S)-[3-(7-Hydroxycarbamoyl-heptanoylamino)-benzoylamino]phenyl-acetic acid], for which the pIC50 in experiment [1] was 6.00 to 7.00; in experiment [2] (Homo sapiens, HeLa) it was under 5.48.
`O=C(CCCCCCC(=O)N1CCc2c([nH]c3ccccc23)C1C(=O)N[C@@H](Cc1ccccc1)C(=O)OC1CCCC1)NO` (stereo partly drawn) [Compound 64, (S)-2-{[2-(7-Hydroxycarbamoyl-heptanoyl)-2,3,4,9-tetrahydro-1H-beta-carboline-1-carbonyl]-amino}-3-phenyl-propionic acid cyclopentyl ester]: the pIC50 in experiment [1] was 6.00 to 7.00; in experiment [2] (Homo sapiens, HeLa), 5.48 to 6.48; in experiment [3], 5.48 to 6.48.
In the case of `O=C(CCCCCCC(=O)N1CCc2c([nH]c3ccccc23)C1C(=O)N[C@@H](Cc1ccccc1)C(=O)O)NO` (stereo partly drawn) [Compound 65, (S)-2-{[2-(7-Hydroxycarbamoyl-heptanoyl)-2,3,4,9-tetrahydro-1H-beta-carboline-1-carbonyl]-amino}-3-phenyl-propionic acid], the negative logarithm of the IC50 (pIC50) in experiment [1] is over 7.00; in experiment [2] (Homo sapiens, HeLa), under 5.48.
Taken in the same sequence, the figures for `O=C(CCCCCCC(=O)Nc1cncc(CN[C@@H](Cc2ccccc2)C(=O)O)c1)NO` [Compound 67, (S)-2-{[5-(7-Hydroxycarbamoyl-heptanoylamino)-pyridin-3-ylmethyl]-amino}-3-phenyl-propionic acid] were 6.00 to 7.00 and under 5.48.
In the case of `O=C(CCCCCNC(=O)c1cccc(CN[C@H](C(=O)OC2CCCC2)c2ccccc2)c1)NO` [Compound 69, (S)-[3-(5-Hydroxycarbamoyl-pentylcarbamoyl)-benzylamino]-phenyl-acetic acid cyclopentyl ester], the pIC50 is 6.00 to 7.00 in experiment [1]; 5.48 to 6.48 in experiment [2] (Homo sapiens, HeLa); 5.48 to 6.48 in experiment [3].
For the molecule `O=C(CCCCCNC(=O)c1cccc(CN[C@H](C(=O)O)c2ccccc2)c1)NO` [Compound 70, (S)-[3-(5-Hydroxycarbamoyl-pentylcarbamoyl)-benzylamino]-phenyl-acetic acid], the pIC50 in experiment [1] is 6.00 to 7.00; in experiment [2] (Homo sapiens, HeLa), under 5.48.
On to `O=C(CCCCCCC(=O)Nc1cccc(CNC(=O)N[C@H](C(=O)OC2CCCC2)c2ccccc2)c1)NO` [Compound 79, (S)-{3-[3-(7-Hydroxycarbamoyl-heptanoylamino)-benzyl]-ureido}-phenyl-acetic acid cyclopentyl ester], for which the pIC50 is over 7.00 in experiment [1], under 5.48 in experiment [4] and under 5.48 in experiment [3].
`O=C(CCCCCCC(=O)Nc1cccc(COC(=O)N[C@@H](Cc2ccccc2)C(=O)OC2CCCC2)c1)NO` [Compound 94, (S)-2-[3-(7-Hydroxycarbamoyl-heptanoylamino)-benzyloxycarbonylamino]-3-phenyl-propionic acid cyclopentyl ester]: the pIC50 in experiment [1] is 6.00 to 7.00; in experiment [4], 5.48 to 6.48; in experiment [3] it was 5.48 to 6.48.
On to `O=C(CNCc1ccc(CNCc2ccc3cc(C(=O)NO)sc3c2)cc1)OC1CCCC1` [Compound 120, (4-{[(2-Hydroxycarbamoyl-benzo[b]thiophen-6-ylmethyl)-amino]-methyl}-benzylamino)-acetic acid cyclopentyl ester], for which the pIC50 in experiment [1] is over 7.00; in experiment [4] it was over 6.48; in experiment [3] it was over 6.48.
As for `O=C(NO)c1cc2ccc(CNCC3CCC(CN[C@H](C(=O)OC4CCCC4)c4ccccc4)CC3)cc2s1` (stereo partly drawn) [Compound 126, (S)-[(4-{[(2-Hydroxycarbamoyl-benzo[b]thiophen-6-ylmethyl)-amino]-methyl}-cyclohexylmethyl)-amino]phenyl-acetic acid cyclopentyl ester], the values for the pIC50 in experiment [1], in experiment [4] and in experiment [3] were 6.00 to 7.00, over 6.48 and under 5.48, respectively.
On to `CC(C)C[C@H](NCC1CCC(CNCc2ccc3cc(C(=O)NO)sc3c2)CC1)C(=O)O` (stereo partly drawn) [Compound 129, (S)-2-[(4-{[(2-Hydroxycarbamoyl-benzo[b]thiophen-6-ylmethyl)-amino]-methyl}-cyclohexylmethyl)-amino]-4-methyl-pentanoic acid], for which, in experiment [1], the pIC50 was 6.00 to 7.00.
With `CC(C)(C)OC[C@H](NCc1ccc(NCc2ccc3cc(C(=O)NO)sc3c2)cc1)C(=O)OC1CCCC1` [Compound 134, (S)-3-tert-Butoxy-2-{4-[(2-hydroxycarbamoyl-benzo[b]thiophen-6-ylmethyl)-amino]-benzylamino}-propionic acid cyclopentyl ester], the pIC50 was 6.00 to 7.00 in experiment [1], 5.48 to 6.48 in experiment [4] and under 5.48 in experiment [3].
